The subject of series [1] is Caco-2. In words: Cytotoxic activity against Homo sapiens (human) Caco2 cells incubated for 4 hr followed by compound wash-out measured after doubling time by MTT assay. The class given is functional, cell-based. Background: Tetrazolium assays rely on reduction of a dye to a coloured formazan, in cell work by metabolically active cells.
Series [2] relates to PA-1. In words: Cytotoxic activity against Homo sapiens (human) PA1 cells incubated for 4 hr followed by compound wash-out measured after doubling time by MTT assay. It is filed as functional, cell-based.
Series [3] has as its system Caco-2. In words: Cytotoxic activity against Homo sapiens (human) Caco2 cells by clonogenic assay. The class given is functional, cell-based.
Series [4] deals with Bacopa monnieri. In words: Toxicity against Bacopa monnieri assessed as shoot elongation at 50 ug/ml after 15 days by Bacopa sensor test (reference value: 0.8 cm). It is filed as organism-based. As to conditions: in vivo, 360 h; call rule not given here.
For series [5], the system named is PA-1. In words: Cytotoxic activity against Homo sapiens (human) PA1 cells by clonogenic assay. The class given is functional, cell-based.
For series [6], the system named is MCF7. In words: Cytotoxic activity against Homo sapiens (human) MCF7 cells incubated for 4 hr followed by compound wash-out measured after doubling time by MTT assay. It is filed as functional, cell-based.
In series [7] the test system is MCF7. In words: Cytotoxic activity against Homo sapiens (human) MCF7 cells by clonogenic assay. The class given is functional, cell-based.
Series [8] has as its system Bacopa monnieri. In words: Toxicity against Bacopa monnieri assessed as change in leaf colour at 50 ug/ml after 15 days by Bacopa sensor test. The class given is organism-based. As to conditions: in vivo, 360 h.
Series [9] relates to COLO 320. In words: Cytotoxic activity against Homo sapiens (human) COLO320 cells incubated for 4 hr followed by compound wash-out measured after doubling time by MTT assay. It is filed as functional, cell-based.
Series [10] concerns WRL68. In words: Cytotoxic activity against Homo sapiens (human) WRL68 cells by clonogenic assay. It is filed as functional, cell-based.
Series [11] deals with COLO 320. In words: Cytotoxic activity against Homo sapiens (human) COLO320 cells by clonogenic assay. The class given is functional, cell-based.
The subject of series [12] is WRL68. In words: Cytotoxic activity against Homo sapiens (human) WRL68 cells incubated for 4 hr followed by compound wash-out measured after doubling time by MTT assay. It is filed as functional, cell-based.
The test system of series [13] is Bacopa monnieri. In words: Toxicity against Bacopa monnieri assessed as number of shoots at 50 ug/ml after 15 days by Bacopa sensor test (reference value: 2). The conditions noted are these: in vivo, 360 h. The class given is organism-based.
Series [14] concerns Bacopa monnieri. In words: Toxicity against Bacopa monnieri assessed as number of leaves at 50 ug/ml after 15 days by Bacopa sensor test (reference value: 6). The class given is organism-based. As to conditions: in vivo, 360 h.
Series [15] relates to Bacopa monnieri. In words: Toxicity against Bacopa monnieri assessed as number of roots at 50 ug/ml after 15 days by Bacopa sensor test (reference value: 2). The conditions noted are these: in vivo, 360 h. The class given is organism-based.
Series [16] concerns COLO 320. In words: Ratio of vinblastine IC50 to compound IC50 for Homo sapiens (human) COLO320 cells by MTT assay. The class given is functional.
Series [17] deals with Caco-2. In words: Ratio of vinblastine IC50 to compound IC50 for Homo sapiens (human) Caco2 cells by MTT assay. The class given is functional.
The subject of series [18] is WRL68. In words: Ratio of vinblastine IC50 to compound IC50 for Homo sapiens (human) WRL68 cells by MTT assay. It is filed as functional.
Setting [19] is: Homo sapiens, Caco-2, 4 h, read-out: IC50.
Setting [20] is: Homo sapiens, PA-1, 4 h, read-out: IC50.
[21] abbreviates: Homo sapiens, MCF7, 4 h, read-out: IC50.
Setting [22] is: Homo sapiens, COLO 320, 4 h, read-out: IC50.
[23] abbreviates: Homo sapiens, WRL68, 4 h, read-out: IC50.

In brackets after ≈: the same amount, converted by molar mass.

With `COC(=O)C1=CO[C@@H](O[C@@H]2O[C@H](COC(=O)c3cccc([N+](=O)[O-])c3)[C@@H](OC(C)=O)[C@H](OC(C)=O)[C@H]2OC(C)=O)[C@@H]2[C@@H](C)[C@@H](OC(C)=O)C[C@H]12`, the IC50 (usually the midpoint of a concentration-inhibition curve) worked out at 1 µg/mL (≈ 1.41 µM) in the series on Caco-2 [1] (setting [19]); 0.85 µg/mL (≈ 1.2 µM) in the series on PA-1 [2] (setting [20]); 5.42 µg/mL (≈ 7.66 µM) in the series with Caco-2 [3]; 2.65 µg/mL (≈ 3.74 µM) in the series on PA-1 [5]; 1.25 µg/mL (≈ 1.77 µM) in the series with MCF7 [6] (setting [21]); 3.42 µg/mL (≈ 4.83 µM) in the series on MCF7 [7]. The IC50 was determined as 0.44 µg/mL (≈ 0.622 µM) in the series with COLO 320 [9] (setting [22]), 6.5 µg/mL (≈ 9.19 µM) in the series on WRL68 [10], 8.2 µg/mL (≈ 11.6 µM) in the series with COLO 320 [11] and 3.2 µg/mL (≈ 4.52 µM) in the series with WRL68 [12] (setting [23]). Besides, the Activity with Bacopa monnieri [4] is recorded as 0.8 cm; in the series with Bacopa monnieri [8], “Non-toxic”; with Bacopa monnieri [13], 2; in the series with Bacopa monnieri [14] it was 6; in the series with Bacopa monnieri [15] it was 2.
Regarding `CCCCCCCCCCCCCCCC(=O)OC[C@H]1O[C@@H](O[C@@H]2OC=C(C(=O)OC)[C@H]3C[C@H](OC(C)=O)[C@H](C)[C@@H]23)[C@H](OC(C)=O)[C@@H](OC(C)=O)[C@@H]1OC(C)=O`, the IC50 entry in the series with Caco-2 [1] (caco-2), with PA-1 [2] (pa-1), with MCF7 [6] (mcf7), with COLO 320 [9] (colo 320) and with WRL68 [12] (wrl68) was “Not Active” in each case.
For the molecule `COC(=O)C1=CO[C@@H](O[C@@H]2O[C@H](COC(=O)c3cc(OC)c(OC)c(OC)c3)[C@@H](OC(C)=O)[C@H](OC(C)=O)[C@H]2OC(C)=O)[C@@H]2[C@@H](C)[C@@H](OC(C)=O)C[C@H]12`, the IC50 was determined as 0.06 µg/mL (≈ 0.0797 µM) with Caco-2 [1] (setting [19]); 0.1 µg/mL (≈ 0.133 µM) with PA-1 [2] (setting [20]); 0.46 µg/mL (≈ 0.611 µM) with Caco-2 [3]; 0.45 µg/mL (≈ 0.598 µM) in the series with PA-1 [5]; 0.25 µg/mL (≈ 0.332 µM) in the series with MCF7 [6] (setting [21]); 0.72 µg/mL (≈ 0.957 µM) in the series with MCF7 [7]. For the same molecule, the IC50 in the series with COLO 320 [9] (setting [22]) was 0.04 µg/mL (≈ 0.0531 µM); in the series with WRL68 [10], 1.2 µg/mL (≈ 1.59 µM); in the series on COLO 320 [11], 0.12 µg/mL (≈ 0.159 µM); in the series on WRL68 [12] (setting [23]), 0.54 µg/mL (≈ 0.717 µM). Further, the “Ratio IC50” value in the series on COLO 320 [16] was 13; with Caco-2 [17], 8; with WRL68 [18], 3. For the same molecule, the Activity is 0.4 cm in the series on Bacopa monnieri [4]; “Non-toxic” in the series on Bacopa monnieri [8]; 2 in the series on Bacopa monnieri [13]; 4 with Bacopa monnieri [14]; 2 with Bacopa monnieri [15].
Consider `COC(=O)C1=CO[C@@H](O[C@@H]2O[C@H](CO)[C@@H](OC(C)=O)[C@H](OC(C)=O)[C@H]2OC(C)=O)[C@@H]2[C@@H](C)[C@@H](OC(C)=O)C[C@H]12`, for which the IC50 result with Caco-2 [1] (caco-2), in the series on PA-1 [2] (pa-1), with MCF7 [6] (mcf7), in the series with COLO 320 [9] (colo 320) and in the series with WRL68 [12] (wrl68) was “Not Active” throughout.
In the case of `COC(=O)C1=CO[C@@H](O[C@@H]2O[C@H](COC(=O)C=C(C)C)[C@@H](OC(C)=O)[C@H](OC(C)=O)[C@H]2OC(C)=O)[C@@H]2[C@@H](C)[C@@H](OC(C)=O)C[C@H]12`, the IC50 in the series with Caco-2 [1] (setting [19]) stood at 0.8 µg/mL (≈ 1.25 µM); in the series on PA-1 [2] (setting [20]), 0.65 µg/mL (≈ 1.01 µM); in the series with Caco-2 [3], 6.2 µg/mL (≈ 9.68 µM); in the series on PA-1 [5] it was 1.84 µg/mL (≈ 2.87 µM); in the series with MCF7 [6] (setting [21]), 1 µg/mL (≈ 1.56 µM); in the series on MCF7 [7], 4.65 µg/mL (≈ 7.26 µM). The IC50 in the series with COLO 320 [9] (setting [22]) is 0.08 µg/mL (≈ 0.125 µM); in the series with WRL68 [10], 3.86 µg/mL (≈ 6.03 µM); in the series with COLO 320 [11] it was 2.84 µg/mL (≈ 4.43 µM); with WRL68 [12] (setting [23]), 1.2 µg/mL (≈ 1.87 µM). Further, the Activity with Bacopa monnieri [4] is reported as 0.4 cm; with Bacopa monnieri [8] it was “Non-toxic”; in the series on Bacopa monnieri [13] it was 2; in the series with Bacopa monnieri [14], 6; in the series with Bacopa monnieri [15] it was 2.
For the molecule `CCCCCCCCCCCCCC(=O)OC[C@H]1O[C@@H](O[C@@H]2OC=C(C(=O)OC)[C@H]3C[C@H](OC(C)=O)[C@H](C)[C@@H]23)[C@H](OC(C)=O)[C@@H](OC(C)=O)[C@@H]1OC(C)=O`, the IC50 result in the series on Caco-2 [1] (caco-2) is “Not Active”; in the series with PA-1 [2] (setting [20]), 6.5 µg/mL (≈ 8.45 µM); with MCF7 [6] (setting [21]), 24.6 µg/mL (≈ 32 µM); in the series on COLO 320 [9] (setting [22]), 30 µg/mL (≈ 39 µM); with WRL68 [12] (setting [23]), 58.5 µg/mL (≈ 76.1 µM).

The record behind these values is ChEMBL document CHEMBL3045094, “A cytotoxic agent from Strychnos nux-vomica and biological evaluation of its modified analogues” (Med Chem Res, 2012).
